Laboratory results: publication PMC11726677, “Eradication of Therapy-Resistant Cancer Stem Cells by Novel Telmisartan Derivatives” (Journal of Medicinal Chemistry, 2024)
One block for each compound: values may come before it.

What was measured:
DU145-DR cells (ABCB1+) = test: SP analysis (DCV, flow cytometry) in DU145-DR cells; format: cell-based, human; conditions: 10 μM
From the text: (§1) In recent studies, we described the side population (SP) phenotype as a marker that defines a heterogeneous cellular compartment with stem cell-characteristics in various cancer cell lines derived from solid tumors, such as ovarian cancer, breast cancer, and lung cancer.[26],[27]

[1] = Microsomal metabolic stability, human; format: in vitro ADME; conditions: for metabolic stability Human, % of compound remaining: after 30 min in HLM, 1 μM; for half-life at 1 µM: human, pooled human liver microsomes, pH 7.4, HLM, read-out: metabolic stability Human t1/2
Method: The stability of the compounds was assessed in pooled human and mouse liver microsomes (final protein concentration 0.5 mg/mL). […] At the appropriate time points, the reactions were stopped by transferring into acetonitrile. After protein precipitation, by centrifugation at 3000 rpm for 20 min at 4 °C, the sample supernatants were analyzed using LC–MS/MS analysis (control compounds were included). The elimination rate constant was determined from the ratio of the ln peak area to time. Half-life (t1/2) and intrinsic clearance (CLint) were calculated using the appropriate formulas.

MCF7 cells (ABCG2+) = test: SP analysis (DCV, flow cytometry) in MCF7 cells; format: cell-based, human; conditions: MCF7, 10 μM
From the text: as §1

DU145-DR cells = test: Chemosensitizing to docetaxel: metabolic activity of DU145-DR cells (MTT); format: cell-based, human; conditions: compound 10 μM + DTX 12.5 nM, 72 h
Method: The chemosensitizing efficacy was investigated in the ovarian and prostate cancer cell lines using the above-described metabolic activity assay. Paclitaxel (PTX) served as a reference (CTR) in A2780 V SP and IGROV-1 SP cells and docetaxel (DTX) in PC3-DR and D145-DR cells.
COS-7 (2 × 10^3 cells per well), IGROV-1 SP (2.5 × 10^3 cells per well), A2780 V SP (1.5 × 10^3 cells per well), PC3-DR (4 × 10^3 cells per well), and DU145-DR (3 × 10^3 cells per well) cells were seeded in 96-well plates in triplicates and after 24 h, the compounds were added at the respective concentrations. K562-R and K562 cells (2 × 10^4 cells per well), were treated with the compounds 2 h after seeding. […] A modified MTT colorimetric assay (EZ4U kit, Biomedica) was used to determine the metabolic activity of the tested cells, according to the manufacturer’s instructions. Absorbance was measured and the optical density of the respective FCS-containing medium and of the substrate was subtracted to exclude nonspecific staining. Metabolic activity in the absence of the compounds (CTR, DMSO) was set to 100% as reference.

PC3-DR cells (ABCB1+) = test: SP analysis (DCV, flow cytometry) in PC3-DR cells; format: cell-based, human; conditions: 10 μM
From the text: as §1

[2] = Hepatocyte stability, mouse; format: in vitro ADME; conditions: for half-life at 1 h, 1 µM / hepatocyte CLint at 1 h, 1 µM: mouse, cryopreserved mouse hepatocytes; for half-life at 1 h, 1 µM: read-out: hepatocytic stability mouse t1/2; for hepatocyte CLint at 1 h, 1 µM: after 60 min in MH, read-out: hepatocytic stability mouse, CLint
Method: Cryopreserved hepatocytes (human and mouse) were used to analyze the stability of the compounds. Hepatocytes (0.5 × 10^6 cells/mL in Williams E medium supplemented with 2 mM L-glutamine and 25 mM N-2-hydroxyethylpiperazin-Ń-ethanesulfonic acid (HEPES)) were preincubated at 37 °C. […] At the appropriate time points, the reactions were stopped by transferring into acetonitrile. After protein precipitation by centrifugation at 3000 rpm for 20 min at 4 °C, the sample supernatants were analyzed by LC–MS/MS analysis (control compounds were included). The elimination rate constant was determined from the ratio of the ln peak area to time. Half-life (t1/2) and intrinsic clearance (CLint) were calculated using the appropriate formulas.

A549 cells (ABCC1+) = test: SP analysis (DCV, flow cytometry) in A549 cells; format: cell-based, human; conditions: A549, 10 μM
From the text: as §1

K562-R cells = test: Cellular imatinib accumulation assay (U(H)PLC-SIM-MS); format: cell-based, human; conditions: preincubated 1 h with 10 μM compound, then 1 μM imatinib 2 h
Method: After treatment, cells were washed, and the resulting cell pellets were lysed in 200 μL of ice-cold methanol. Lysates were incubated on a tube shaker (Thermomixer C, Eppendorf) for 20 min at 4 °C and 1400 rpm, followed by centrifugation (MicroStar 17R, VWR) at 16000g for 5 min at 4 °C. 180 μL of supernatants were separated from the sediment and dried in a rotary vacuum evaporator (Concentrator plus, Eppendorf) and stored at −80 °C until analysis.
Metabolites were separated using the following gradient: 1% B for 0.2 min, 1% B to 70% B within 0.6 min, 70% B to 90% B within 0.2 min, 90% B for 0.3 min. The UPLC system was coupled to a quadrupole orbitrap mass spectrometer (Exploris 480, Thermo Fischer Scientific) via a HESI electrospray source. […] The spray voltage was set to 3500 V and the ion transfer tube and vaporizer temperatures were set at 350 °C. Sheath gas was used at a flow rate of 60 (arbitrary units (a.u)) and auxiliary gas at a flow rate of 15 (a.u)).
Raw data processing was performed using TraceFinder General Quan 5.0 (Thermo Scientific, San Jose, CA, USA). The ICIS algorithm was used for peak identification and integration with the following parameters Peak detection strategy: Highest peak; Peak threshold type: Area; Threshold: 1; Smoothing: 3; S/N threshold: 3; Tailing Factor: 8. Peaks were manually adjusted when necessary. […]

metabolic stability Human, % of compound remaining [1]: 26.3% | half-life at 1 µM [1]: 16.2 min | half-life at 1 h, 1 µM ([2]; MH): 13.8 min | hepatocyte CLint at 1 h, 1 µM [2]: 101 µL/min/1e6 cells
Compound: CCCc1nc2c(C)cc(-c3nc4ccccc4n3C)cc2n1Cc1ccc(-c2ccccc2C(=O)OC)cc1 [7b, Methyl 4′-((1,7′-dimethyl-2′-propyl-1H,3′H-[2,5′-bibenzo[d]imidazole]-3′-yl)methyl)-[1,1′-biphenyl]-2-carboxylate]
effect on SP phenotype (DU145-DR cells (ABCB1+)): eliminated the SP phenotype | effect on SP phenotype (MCF7 cells (ABCG2+)): eliminated the SP phenotype | chemosensitizing to DTX (antimetabolic activity) (DU145-DR cells): produced the same effects as 5c and 6c | effect on SP phenotype (PC3-DR cells (ABCB1+)): eliminated the SP phenotype | effect on SP phenotype (A549 cells (ABCC1+)): eliminated the SP phenotype | intracellular accumulation of imatinib (K562-R cells): notably restored

Compound: CCCc1nc2c(C)cc(-c3nc4ccccc4n3C)cc2n1Cc1ccc(-c2ccccc2C(N)=O)cc1 [7c, 4′-((1,7′-Dimethyl-2′-propyl-1H,3′H-[2,5′-bibenzo[d]imidazole]-3′-yl)methyl)-[1,1′-biphenyl]-2-carboxamide]
effect on SP phenotype (DU145-DR cells (ABCB1+)): eliminated the SP phenotype | metabolic stability Human, % of compound remaining [1]: 58.1% | half-life at 1 µM [1]: 45.1 min | effect on SP phenotype (MCF7 cells (ABCG2+)): eliminated the SP phenotype | chemosensitizing to DTX (antimetabolic activity) (DU145-DR cells): most active chemosensitizer | effect on SP phenotype (PC3-DR cells (ABCB1+)): eliminated the SP phenotype | clearance class ([2]; MH): high clearance | half-life at 1 h, 1 µM ([2]; MH): 44.9 min | hepatocyte CLint at 1 h, 1 µM [2]: 30.9 µL/min/1e6 cells | effect on SP phenotype (A549 cells (ABCC1+)): eliminated the SP phenotype | intracellular accumulation of imatinib (K562-R cells): notably restored
